According to patent US9890133B2 (priority 2011, dated 2018):
Values after ≈ are worked out from the molar mass of the structure shown. Read-outs that look alike come from different tables or passages of the source.

Key:
[1] = Cytotoxicity (CC50), MTS-based assay (Experimental Example 2); assay type: cell-based
Experimental: (§1) The test compounds were evaluated for anti-picornavirus activity by a multicycle cytopathic effect (CPE) reduction assay. The antiviral activity was initially determined using an MTS [3-(4,5-dimethylthiazol-2-yl)-5-(3-carboxymethoxyphenyl)-2-(4-sulfophenyl-2H-tetrazolium]-based CPE reduction assay.
(§2) In this regard, cells grown to confluence in 96-well plates were infected with 100 50% cell culture infective doses (CCID50) of virus. After an adsorption period of 2 hrs at 37° C., virus was removed and serial dilutions of the compounds were added. […] After removal of the medium, 90 μl of a culture medium and 10 μl of MTS-phenazine methosulfate (Promega, Leiden, The Netherlands) were added to each well. After an incubation period of 2 hrs at 37° C., the optical density (OD) of each well was read at 498 nm in a microplate reader.
CPE values for evaluating cytotoxicity were calculated using the following Mathematic Formula 4: […]
(§3) The 50% effective concentration (EC50) and the 50% cytotoxic concentration (CC50) were defined as the concentrations of compound that offered 50% protection against virus-induced CPE and that killed cells by 50%, respectively, and were calculated using logarithmic interpolation.

[2] = test system: Coxsackie A9; assay: Multicycle CPE reduction assay, Coxsackie A9; assay type: cell-based; details: incubation at 37° C. in BGM cells
Experimental: as §1, §2
(§4) CPE values for evaluating antiviral activity were calculated using the following Mathematic Formula 3: […]
as §3

[3] = test system: Entero 71; assay: Multicycle CPE reduction assay, Entero 71; assay type: cell-based; details: incubation at 37° C. in RD cells
Experimental: as §1, §2, §4, §3

[4] = test system: Echo 11; assay: Multicycle CPE reduction assay, Echo 11; assay type: cell-based; details: BGM, read-out: Echo 11 EC50
Experimental: as §1, §2, §4, §3

[5] = test system: Polio 1; assay: organism not typed; assay type: cell-based; details: BGM, read-out: Polio 1 EC50
[6] = test system: Polio 2; assay: organism not typed; assay type: cell-based; details: BGM, read-out: Polio 2 EC50
[7] = test system: Polio 3; assay: organism not typed; assay type: cell-based; details: BGM, read-out: Polio 3 EC50
[8] = test system: Rhino 2; assay: Multicycle CPE reduction assay, Rhino 2; assay type: cell-based; details: incubation at 37° C. in HeLa cells
Experimental: as §1, §2, §4, §3

[9] = test system: Rhino 9; assay: Multicycle CPE reduction assay, Rhino 9; assay type: cell-based; details: incubation at 37° C. in HeLa cells
Experimental: as §1, §2, §4, §3

[10] = test system: Rhino 15; assay: Multicycle CPE reduction assay, Rhino 15; assay type: cell-based; details: incubation at 37° C. in HeLa cells
Experimental: as §1, §2, §4, §3

[11] = test system: Rhino 29; assay: Multicycle CPE reduction assay, Rhino 29; assay type: cell-based; details: incubation at 37° C. in HeLa cells
Experimental: as §1, §2, §4, §3

[12] = test system: Rhino 39; assay: Multicycle CPE reduction assay, Rhino 39; assay type: cell-based; details: incubation at 37° C. in HeLa cells
Experimental: as §1, §2, §4, §3

[13] = test system: Rhino 41; assay: Multicycle CPE reduction assay, Rhino 41; assay type: cell-based; details: incubation at 37° C. in HeLa cells
Experimental: as §1, §2, §4, §3

[14] = test system: Rhino 45; assay: Multicycle CPE reduction assay, Rhino 45; assay type: cell-based; details: HeLa, incubation at 37° C. in HeLa cells
Experimental: as §1, §2, §4, §3

[15] = test system: Rhino 59; assay: Multicycle CPE reduction assay, Rhino 59; assay type: cell-based; details: incubation at 37° C. in HeLa cells
Experimental: as §1, §2, §4, §3

[16] = test system: Rhino 63; assay: Multicycle CPE reduction assay, Rhino 63; assay type: cell-based; details: incubation at 37° C. in HeLa cells
Experimental: as §1, §2, §4, §3

[17] = test system: Rhino 85; assay: Multicycle CPE reduction assay, Rhino 85; assay type: cell-based; details: incubation at 37° C. in HeLa cells
Experimental: as §1, §2, §4, §3

[18] = test system: Rhino 89; assay: Multicycle CPE reduction assay, Rhino 89; assay type: cell-based; details: HeLa, read-out: Rhino 89 EC50
Experimental: as §1, §2, §4, §3

[19] = test system: Rhino 42; assay: Multicycle CPE reduction assay, Rhino 42; assay type: cell-based; details: incubation at 37° C. in HeLa cells
Experimental: as §1, §2, §4, §3

[20] = test system: Rhino 70; assay: Multicycle CPE reduction assay, Rhino 70; assay type: cell-based; details: HeLa, read-out: Rhino 70 EC50, incubation at 37° C. in HeLa cells
Experimental: as §1, §2, §4, §3

[21] = test system: Rhino 72; assay: Multicycle CPE reduction assay, Rhino 72; assay type: cell-based; details: incubation at 37° C. in HeLa cells
Experimental: as §1, §2, §4, §3

[22] = test system: Rhino 86; assay: Multicycle CPE reduction assay, Rhino 86; assay type: cell-based; details: incubation at 37° C. in HeLa cells
Experimental: as §1, §2, §4, §3

[23] = in vitro; details: human
[24] = clinical studies; cited from earlier work
[25] = cited from earlier work; for metabolization and excretion / bioavailability: in vivo
[26] = in vivo; cited from earlier work
[27] = test system: 48 rhinovirus types and coxsackievirus A21, B3, enterovirus 70 and echovirus 11; details: cell culture; cited from earlier work
[28] = test system: rhinovirus infections; details: treatment of rhinovirus infections; cited from earlier work
[29] = test system: Poliovirus 3; assay: microbe, parasite or virus in culture; assay type: cell-based; details: Enterovirus C
[30] = test system: mock-infected cells (HeLa, MRC-5, RD); details: human
[31] = test system: Coxsackie A24(DN); assay: CPE inhibition assay, Coxsackie A24(DN); assay type: cell-based; details: MRC5, 48 h; MRC-5, 37° C., 2 days, FDA
[32] = test system: Coxsackie A24(HG); assay: CPE inhibition assay, Coxsackie A24(HG); assay type: cell-based; details: MRC5, 48 h; MRC-5, 37° C., 2 days, FDA
[33] = cited from earlier work
[34] = HeLa37, 48 h, read-out: Poliovirus 3 EC50

SMILES: CC(=O)NC12C(=O)c3ccccc3C1(O)Oc1cc(C(C)C)ccc12 (centres unmarked) [Example 66, N-(4b-Hydroxy-7-isopropyl-10-oxo-4b,10-dihydro-5-oxa-indeno[2,1-a]inden-9b-yl)-acetamide]
- CC50 at 3 days [1]: > 100000 nM
- EC50 [2]: 8.3 ± 0.43 nM
- EC50 [3]: 25 ± 0.92 nM
- EC50 [4]: 7.2 ± 0.18 nM
- EC50 [5]: 690 ± 170 nM
- EC50 [6]: 230 ± 20 nM
- EC50 [7]: 580 ± 6.9 nM
- EC50 [8]: 5900 ± 250 nM
- EC50 [9]: 2300 ± 700 nM
- EC50 [10]: 4600 ± 1300 nM
- EC50 [11]: 6400 ± 830 nM
- EC50 [12]: 1800 ± 370 nM
- EC50 [13]: 600 ± 26 nM
- EC50 [14]: 1700 ± 460 nM
- EC50 [15]: > 10000 nM
- EC50 [16]: > 10000 nM
- EC50 [17]: > 5800 nM
- EC50 [18]: 630 ± 23 nM
- EC50 [19]: 150 ± 23 nM
- EC50 [20]: 57 ± 17 nM
- EC50 [21]: 130 ± 69 nM
- EC50 [22]: 70 ± 6.6 nM
- CC50 ([23]; Picorana CC50): 44.7 µg/mL (≈ 133 µM)

SMILES: CC(C)S(=O)(=O)n1c(N)nc2ccc(/C(=N/O)c3ccccc3)cc21 [Enviroxime]
- pharmacokinetics [24]: bad pharmacokinetics
- side effects [24]: unwanted side effects
- therapeutic effects [24]: insignificant or few therapeutic effects

SMILES: Cc1cc(CCCCCOc2c(Cl)cc(C3=NCCO3)cc2Cl)on1 [WIN 54954]
- metabolization and excretion [25]: rapid metabolization and excretion
- side effects [26]: skin rash

SMILES: CCOC(=O)/C=C/[C@H](C[C@@H]1CCNC1=O)NC(=O)[C@@H](CC(=O)[C@@H](NC(=O)c1cc(C)on1)C(C)C)Cc1ccc(F)cc1 [AG 7088]
- concentration range with antiviral effect [27]: nanomolar concentration range

SMILES: Cc1cc(CCCOc2c(C)cc(-c3noc(C(F)(F)F)n3)cc2C)on1 [Pleconaril, pleconaril]
- oral bioavailability ([25]; oral): very good oral bioavailability
- side effects [28]: side effects were observed
- therapy success [28]: therapy success was too low

SMILES: CC(C)c1ccc2c(c1)OC1(O)c3cccc(N)c3C(=O)C21NC(=O)c1[nH]nc2ccccc12 (centres unmarked) [Example 288, N-(1-Amino-4b-hydroxy-7-isopropyl-10-oxo-9b,10-dihydro-4bH-benzo[d]indeno[1,2-b]furan-9b-yl)-2H-indazole-3-carboxamide]
- EC50 ([29]; read-out: Poliovirus3 EC50): 0.029 µg/mL (≈ 0.0638 µM)
- Picorana CC50 [30]: >10 µg/mL

SMILES: COC(=O)Nc1cccc2c1C(=O)C1(O)c3ccc(C(C)C)cc3OC21O (centres unmarked) [Example 49, Methyl 4b,9b-dihydroxy-7-isopropyl-10-oxo-9b,10-dihydro-4bH-benzo[d]indeno[1,2-b]furan-1-ylcarbamate]
- melting point: 96 to 99 °C
- CC50 ([23]; Picorana CC50): 9.18 µg/mL (≈ 24.9 µM)

SMILES: Cc1cc2c(cc1C)C1(O)C(=O)c3ccccc3C1(O)O2 (centres unmarked) [Example 4, 4b,9b-dihydroxy-7,8-dimethyl-4bH-benzo[d]indeno[1,2-b]furan-10(9bH)-one]
- melting point: 198 to 200 °C
- CC50 ([23]; Picorana CC50): > 50 µg/mL

SMILES: CC(=O)Nc1cccc2c1C(=O)C1(N)c3ccc(C(C)C)cc3OC21O (centres unmarked) [Example 56]
- melting point: 152 to 156 °C
- CC50 ([23]; Picorana CC50): 42.2 µg/mL (≈ 120 µM)

SMILES: CC(=O)O[C@@]12Oc3cc(C(C)C)ccc3[C@]1(OC(C)=O)C(=O)c1c(N)cccc12 [Example 47, 1-Amino-7-isopropyl-10-oxo-9b,10-dihydro-4bH-benzo[d]indeno[1,2-b]furane-4b,9b-diyl diacetate]
- EC50 [31]: 0.055 µg/mL
- EC50 [32]: < 0.01 µg/mL
- EC50 [29, 34]: < 0.1 µg/mL
- EC50 ([29]; read-out: Poliovirus3 EC50): < 0.1 µg/mL
- melting point: 220 to 223 °C
- CC50 [23]: 15.4 µg/mL

SMILES: CC(=O)Nc1cccc2c1C(=O)[C@@]1(NC(C)=O)c3ccc(C(C)C)cc3O[C@@]21O [Example 87, N,N′-((4bS,9bS)-4b-Hydroxy-7-isopropyl-10-oxo-9b,10-dihydro-4bH-benzo[d]indeno[1,2-b]furane-1,9b-diyl)diacetamide]
- melting point: 205 to 207 °C
- CC50 ([23]; Picorana CC50): 36.8 µg/mL (≈ 93.2 µM)

SMILES: CCCCCCCCCc1ccc2c(c1)C1(O)C(=O)c3ccccc3C1(O)O2 (centres unmarked) [Example 26, 4b,9b-Dihydroxy-8-nonyl-4bH-benzo[d]indeno[1,2-b]furan-10(9bH)-one]
- melting point: 108 to 110 °C
- CC50 ([23]; Picorana CC50): < 4 µg/mL

SMILES: Cc1cc(CCCCCCCOc2ccc(C3=NCCO3)cc2)on1 [disoxaril]
- bioavailability [25]: low bioavailability
- metabolization and excretion [25]: rapid metabolization and excretion

SMILES: CC(C)c1ccc2c(c1)OC1(OC(=O)C(C)(C)C)c3ccccc3C(=O)C21OC(=O)C(C)(C)C (centres unmarked) [Example 33, 7-Isopropyl-10-oxo-9b,10-dihydro-4bH-benzo[d]indeno[1,2-b]furan-4b,9b-diyl bis(2,2-dimethylpropanoate)]
- melting point: 153 to 157 °C
- CC50 ([23]; Picorana CC50): > 50 µg/mL

SMILES: Cc1cc2c(c(C)c1C)C1(O)C(=O)c3ccccc3C1(O)O2 (centres unmarked) [Example 22, 4b,9b-Dihydroxy-7,8,9-trimethyl-4bH-benzo[d]indeno[1,2-b]furan-10(9bH)-one]
- melting point: 212 to 214 °C
- CC50 ([23]; Picorana CC50): 8.01 µg/mL (≈ 27 µM)

SMILES: CCC(=O)C(CCCCCCOc1ccc(OC)cc1Cl)C(=O)CC [arildone, Arildone]
- solubility [33]: poor solubility
- bioavailability [25]: low bioavailability

SMILES: CCc1ccc2c(c1)OC1(O)c3cccc(N)c3C(=O)C21O (centres unmarked) [Example 50, 1-Amino-7-ethyl-4b,9b-dihydroxy-4b,9b-dihydro-5-oxa-indeno[2,1-a]inden-10-one]
- EC50 [29, 34]: < 0.1 µg/mL
- EC50 ([29]; read-out: Poliovirus3 EC50): < 0.1 µg/mL
- melting point: 200 to 203 °C
- CC50 [23]: 49.9 µg/mL (≈ 168 µM)

SMILES: COC(=O)N[C@@]12C(=O)c3ccccc3[C@]1(O)Oc1cc(C(C)C)ccc12 [Example 84, Methyl (4bS,9bS)-4b-hydroxy-7-isopropyl-10-oxo-9b,10-dihydro-4bH-benzo[d]indeno[1,2-b]furan-9b-ylcarbamate]
- melting point: 161 to 163 °C
- CC50 ([23]; Picorana CC50): > 50 µg/mL

SMILES: O=C1c2ccccc2C2(O)Oc3cc4ccccc4cc3C12O (centres unmarked) [Example 15, 4b,11b-Dihydroxy-4bH-indeno[1,2-b]naphtho[2,3-d]furan-12(11 bH)-one]
- melting point: 220 to 221 °C
- CC50 ([23]; Picorana CC50): 8.57 µg/mL (≈ 28.2 µM)

SMILES: CC(C)(C)c1cccc2c1OC1(O)c3ccccc3C(=O)C21O (centres unmarked) [Example 21, 6-tert-Butyl-4b,9b-dihydroxy-4bH-benzo[d]indeno[1,2-b]furan-10(9bH)-one]
- melting point: 148 to 152 °C
- CC50 ([23]; Picorana CC50): 32.1 µg/mL (≈ 103 µM)
